Experiments:
vanilloid receptor (VR1) = biological target: T1, vanilloid receptor (VR1) (Homo sapiens, UniProt Q8NER1); assay: Functional testing on vanilloid receptor (VR1): FLIPR Ca2+ inflow assay in CHO K1 cells stably transfected with the VR1 gene; assay type: cell-based; conditions: for inhibition at 10 µM: CHO-K1, inhibition compared to 10 μM CP (capsaicin); for activation at 10 µM: CHO-K1, stimulation compared to 10 μM CP (capsaicin)
T1 construct: expressed in transfected cells; host or cells: CHO K1 cells (ECACC), stably transfected
Text: II. Functional Testing Carried Out on the Vanilloid Receptor (VR1)
The agonistic or antagonistic effect of the substances to be tested can also be determined on the vanilloid receptor (VR1) using the following assay. According to this assay, the Ca^2+ inflow is quantified through the channel using a Ca^2+-sensitive dye (type Fluo-4, Molecular Probes Europe BV, Leiden, Netherlands) in a fluorescent imaging plate reader (FLIPR, Molecular Devices, Sunnyvale, USA).
Chinese hamster ovary cells (CHO K1 cells, European Collection of Cell Cultures (ECACC) United Kingdom) were stably transfected with the VR1 gene. For functional testing, these cells were plated out on poly-D-lysine-coated black 96 well plates having a clear base (BD Biosciences, Heidelberg, Germany) at a density of 25,000 cells/well. The cells were incubated overnight at 37° C. and 5% CO2 in a culture medium (Ham's F12 nutrient mixture, 10% by volume of FCS (foetal calf serum), 18 μg/ml L-proline). The next day the cells were incubated with Fluo-4 (Fluo-4 2 μM, 0.01% by volume of Pluronic F127, Molecular Probes in HBSS (Hank's buffered saline solution), Gibco Invitrogen GmbH, Karlsruhe, Germany) for 30 minutes at 37° C. Subsequently, the plates were washed 3 times with HBSS buffer and after further incubation for 15 minutes at room temperature used for Ca^2+ measurement in a FLIPR assay. The Ca^2+-dependent fluorescence was measured before and after the addition of the substances to be tested (λex wavelength=488 nm, λem=540 nm). Quantification was carried out by measuring the highest fluorescence intensity (FC, Fluorescence Counts) over time.
The FLIPR protocol consists of 2 substance additions. First the compounds to be tested (10 μM) were pipetted onto the cells and the Ca^2+ inflow was compared with the control (capsaicin 10 μM) (% activation based on the Ca^2+ signal after the addition of 10 μM capsaicin). After 5 minutes' incubation, 100 nM of capsaicin were administered and the Ca^2+ inflow was also determined.
Desensitising agonists and antagonists led to suppression of the Ca^2+ inflow. The % inhibition was calculated compared to the maximum achievable inhibition with 10 μM of capsaicin.

[1] = biological target: T2, rat-species vanilloid receptor 1 (VR1/TRPV1) (Rattus norvegicus, UniProt O35433); assay: Functional testing on vanilloid receptor 1 (VR1/TRPV1): FLIPR Ca2+ inflow assay in rat dorsal root ganglia cells (% activation / % inhibition vs capsaicin); assay type: cell-based; conditions: for inhibition at 10 µM: inhibition compared to 10 μM CP (capsaicin); for activation at 10 µM: stimulation compared to 10 μM CP (capsaicin)
T2 construct: endogenous in cells; host or cells: primary cells dissociated from rat dorsal root ganglia (DRG)
Procedure: Preference may also be given to substituted spiro compounds according to the invention of general formula I which in a FLIPR assay in a concentration of 10 μM display inhibition of the Ca^2+ ion inflow in dorsal root ganglia of rats of at least 30%, preferably of at least 40%, particularly preferably of at least 50%, most particularly preferably of at least 70%, even more preferably of at least 90%, compared to the maximum achievable inhibition of the Ca^2+ ion inflow with capsaicin in a concentration of 10 μM.
In the FLIPR assay, the Ca^2+ inflow is quantified using a Ca^2+-sensitive dye (type Fluo-4, Molecular Probes Europe BV, Leiden, Netherlands) in a fluorescent imaging plate reader (FLIPR, Molecular Devices, Sunnyvale, USA), as described hereinafter.
I. Functional Testing Carried Out on the Vanilloid Receptor 1 (VR1/TRPV1 Receptor)
The agonistic or antagonistic effect of the substances to be tested can be determined on the rat-species vanilloid receptor 1 (VR1/TRPV1) using the following assay. According to this assay, the Ca^2+ inflow is quantified through the receptor channel using a Ca^2+-sensitive dye (type Fluo-4, Molecular Probes Europe BV, Leiden, Netherlands) in a fluorescent imaging plate reader (FLIPR, Molecular Devices, Sunnyvale, USA).
Complete medium: 50 mL HAMS F12 nutrient mixture (Gibco Invitrogen GmbH, Karlsruhe, Germany) with
10% by volume of FCS (foetal calf serum, Gibco Invitrogen GmbH, Karlsruhe, Germany, […]);
2 mM L-glutamine (Sigma, Munich, Germany);
1% by weight of AA solution (antibiotic/antimyotic solution, PAA, Pasching, Austria)
and 25 ng/ml NGF medium (2.5 S, Gibco Invitrogen GmbH, Karlsruhe, Germany)
Cell culture plate: Poly-D-lysine-coated, black 96 well plates having a clear base (96 well black/clear plate, BD Biosciences, Heidelberg, Germany) were additionally coated with laminin (Gibco Invitrogen GmbH, Karlsruhe, Germany), the laminin being diluted with PBS (Ca—Mg-free PBS, Gibco Invitrogen GmbH, Karlsruhe, Germany) to a concentration of 100 μg/mL. Aliquots having a laminin concentration of 100 μg/mL were removed and stored at −20° C. The aliquots were diluted with PBS in a ratio of 1:10 to 10 μg/mL laminin and in each case 50 μL of the solution were pipetted into a recess in the cell culture plate. The cell culture plates were incubated for at least two hours at 37° C., the excess solution was removed by suction-filtration and the recesses were each washed twice with PBS. The coated cell culture plates were stored with excess PBS which was not removed until just before the feeding of the cells.
Preparation of the Cells:
The vertebral column was removed from decapitated rats and placed immediately into cold HBSS buffer (Hank's buffered saline solution, Gibco Invitrogen GmbH, Karlsruhe, Germany), i.e. buffer located in an ice bath, mixed with 1% by volume (percent by volume) of an AA solution (antibiotic/antimyotic solution, PAA, Pasching, Austria). The vertebral column was cut longitudinally and removed together with fasciae from the vertebral canal. Subsequently, the dorsal root ganglia (DRG) were removed and again stored in cold HBSS buffer mixed with 1% by volume of an AA solution. The DRG, from which all blood remnants and spinal nerves had been removed, were transferred in each case to 500 μL of cold type 2 collagenase (PAA, Pasching, Austria) and incubated for 35 minutes at 37° C. After the addition of 2.5% by volume of trypsin (PAA, Pasching, Austria), incubation was continued for 10 minutes at 37° C. After complete incubation, the enzyme solution was carefully pipetted off and 500 μL of complete medium were added to each of the remaining DRG. The DRG were in each case suspended several times, drawn through cannulae No. 1, No. 12 and No. 16 using a syringe and transferred to a 50 mL Falcon tube which was filled up to 15 mL with complete medium. […]

[2] = capsaicin (CAP) stimulus, average

T2 sequence (O35433 whole entry): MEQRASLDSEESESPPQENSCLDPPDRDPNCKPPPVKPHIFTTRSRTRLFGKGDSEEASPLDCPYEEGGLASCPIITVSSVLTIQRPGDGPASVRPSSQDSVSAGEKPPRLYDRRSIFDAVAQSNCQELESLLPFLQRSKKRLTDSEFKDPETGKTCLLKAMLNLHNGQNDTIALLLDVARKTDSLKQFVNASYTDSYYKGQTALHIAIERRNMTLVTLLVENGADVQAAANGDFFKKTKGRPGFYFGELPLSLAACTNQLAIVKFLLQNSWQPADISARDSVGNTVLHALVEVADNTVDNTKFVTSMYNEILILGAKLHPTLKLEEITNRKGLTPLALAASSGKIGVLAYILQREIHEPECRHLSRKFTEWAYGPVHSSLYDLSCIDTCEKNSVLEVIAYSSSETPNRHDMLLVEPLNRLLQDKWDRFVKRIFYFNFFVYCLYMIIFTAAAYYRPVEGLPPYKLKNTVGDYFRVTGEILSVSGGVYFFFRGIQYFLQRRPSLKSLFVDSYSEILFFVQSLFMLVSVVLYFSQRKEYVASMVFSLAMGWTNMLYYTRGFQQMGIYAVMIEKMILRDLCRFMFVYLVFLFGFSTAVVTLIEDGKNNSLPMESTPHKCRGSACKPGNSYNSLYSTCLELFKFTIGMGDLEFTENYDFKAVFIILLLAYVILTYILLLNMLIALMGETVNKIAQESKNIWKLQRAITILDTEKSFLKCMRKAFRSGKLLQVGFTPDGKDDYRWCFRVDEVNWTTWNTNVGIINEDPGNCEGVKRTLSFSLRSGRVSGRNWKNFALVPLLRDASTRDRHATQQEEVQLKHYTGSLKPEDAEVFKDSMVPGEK
T1 sequence (Q8NER1 whole entry): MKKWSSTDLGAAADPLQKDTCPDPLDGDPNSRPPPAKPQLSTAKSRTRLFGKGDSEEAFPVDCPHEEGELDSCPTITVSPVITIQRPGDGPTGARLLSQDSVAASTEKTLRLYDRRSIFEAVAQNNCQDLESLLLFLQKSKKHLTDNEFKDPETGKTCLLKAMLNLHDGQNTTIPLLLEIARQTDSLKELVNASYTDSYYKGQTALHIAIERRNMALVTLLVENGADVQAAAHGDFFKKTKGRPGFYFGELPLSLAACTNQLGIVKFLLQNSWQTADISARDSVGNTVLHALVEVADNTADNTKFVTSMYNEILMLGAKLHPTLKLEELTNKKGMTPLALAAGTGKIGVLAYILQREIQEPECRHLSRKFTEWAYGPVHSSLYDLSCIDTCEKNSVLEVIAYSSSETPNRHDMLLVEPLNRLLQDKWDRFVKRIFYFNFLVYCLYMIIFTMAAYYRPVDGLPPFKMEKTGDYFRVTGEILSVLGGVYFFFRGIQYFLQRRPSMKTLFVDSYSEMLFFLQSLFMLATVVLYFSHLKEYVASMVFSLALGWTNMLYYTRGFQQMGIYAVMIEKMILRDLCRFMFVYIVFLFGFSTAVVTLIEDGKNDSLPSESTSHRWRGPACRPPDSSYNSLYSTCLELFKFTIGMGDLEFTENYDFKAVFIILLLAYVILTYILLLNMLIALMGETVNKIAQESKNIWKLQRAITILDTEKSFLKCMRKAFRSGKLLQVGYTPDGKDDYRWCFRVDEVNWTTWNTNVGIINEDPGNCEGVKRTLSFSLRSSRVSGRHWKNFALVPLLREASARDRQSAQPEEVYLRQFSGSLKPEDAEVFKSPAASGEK

O=C(Nc1ccc(C(F)(F)F)cc1)N1CCC2(CC1)CC(c1ccc(Cl)cc1)=NO2 [Compound 212, 3-(4-chlorophenyl)-1-oxa-2,8-diazaspiro[4.5]dec-2-ene-8-carboxylic acid-(4-trifluoromethylphenyl)amide]
inhibition at 10 µM (vanilloid receptor (VR1)): -16.1%
activation at 10 µM (vanilloid receptor (VR1)): -0.21%
inhibition at 10 µM [1]: 61.9%
activation at 10 µM [1]: -0.43%

O=C(Nc1cccc(Br)c1)N1CCC2(CC1)CC(c1ccccc1)=NO2 [Compound 193, 3-phenyl-1-oxa-2,8-diazaspiro[4.5]dec-2-ene-8-carboxylic acid-(3-bromophenyl)amide]
inhibition at 10 µM (vanilloid receptor (VR1)): -2.64%
activation at 10 µM (vanilloid receptor (VR1)): 0.11%
inhibition at 10 µM [1]: 43.6%
activation at 10 µM [1]: -0.17%

COc1cccc(C2=NOC3(CCN(C(=O)Nc4ccc(Cl)cc4)CC3)C2)c1 [Compound 39, 3-(3-methoxyphenyl)-1-oxa-2,8-diazaspiro[4.5]dec-2-ene-8-carboxylic acid-(4-chlorophenyl)amide]
inhibition at 10 µM (vanilloid receptor (VR1)): 25%
activation at 10 µM (vanilloid receptor (VR1)): -0.14%
inhibition at 10 µM [1]: 74%
activation at 10 µM [1]: 0.11%

CC(C)c1ccc(NC(=O)N2CCC3(CC2)CC(c2ccc(Cl)cc2)=NO3)cc1 [Compound 79, 3-(4-chlorophenyl)-1-oxa-2,8-diazaspiro[4.5]dec-2-ene-8-carboxylic acid-(4-isopropylphenyl)amide]
inhibition at 10 µM (vanilloid receptor (VR1)): -17.6%
activation at 10 µM (vanilloid receptor (VR1)): -0.35%
inhibition at 10 µM [1]: 46.5%
activation at 10 µM [1]: 0.38%

FC(F)(F)c1cccc(NC(=S)N2CCC3(CC2)CC(c2ccccc2)=NO3)c1 [Compound 262, 3-phenyl-1-oxa-2,8-diazaspiro[4.5]dec-2-ene-8-thiocarboxylic acid-(3-trifluoromethylphenyl)amide]
inhibition at 10 µM (vanilloid receptor (VR1)): 7.81%
activation at 10 µM (vanilloid receptor (VR1)): -0.28%
inhibition at 10 µM [1]: 52.5%
activation at 10 µM [1]: -0.54%

CC(C(=O)N1CCC2(CC1)CC(c1cccc(F)c1)=NO2)c1ccc(NS(C)(=O)=O)c(F)c1 (centres unmarked) [Compound 366, N-(2-fluoro-4-(1-(3-(3-fluorophenyl)-1-oxa-2,8-diazaspiro[4.5]dec-2-en-8-yl)-1-oxopropan-2-yl)phenyl)methanesulphonamide]
inhibition at 10 µM (vanilloid receptor (VR1)): -20%
activation at 10 µM (vanilloid receptor (VR1)): -1%
inhibition at 10 µM [1]: 29%
activation at 10 µM [1]: 0%

O=C(C#Cc1ccc(C(F)(F)F)cc1)N1CCC2(CC1)CC(c1ccccc1)=NO2 [Compound 363, 1-(3-phenyl-1-oxa-2,8-diazaspiro[4.5]dec-2-en-8-yl)-3-(4-(trifluoromethyl)phenyl)prop-2-yn-1-one]
inhibition at 10 µM (vanilloid receptor (VR1)): 30%
activation at 10 µM (vanilloid receptor (VR1)): 0%
inhibition at 10 µM [1]: 81%
activation at 10 µM [1]: 0%

COc1cccc(C2=NOC3(CCN(C(=O)Nc4ccc(C(C)(C)C)cc4)CC3)C2)c1 [Compound 140, 3-(3-methoxyphenyl)-1-oxa-2,8-diazaspiro[4.5]dec-2-ene-8-carboxylic acid-(4-tert-butylphenyl)amide]
inhibition at 10 µM (vanilloid receptor (VR1)): 9.67%
activation at 10 µM (vanilloid receptor (VR1)): 9.37%
inhibition at 10 µM [1]: 99.2%
activation at 10 µM [1]: 1.4%

CC(C)(C)c1ccc(NC(=O)N2CCC3(CC2)CC(c2cccc(Cl)c2)=NO3)cc1 [Compound 333, N-(4-tert-butylphenyl)-3-(3-chlorophenyl)-1-oxa-2,8-diazaspiro[4.5]dec-2-ene-8-carboxamide]
inhibition at 10 µM (vanilloid receptor (VR1)): 29%
activation at 10 µM (vanilloid receptor (VR1)): 8%
inhibition at 10 µM [1]: 101%
activation at 10 µM [1]: 9%

CSc1ccc(NC(=O)N2CCC3(CC2)CC(c2ccc(C)cc2)=NO3)cc1 [Compound 69, 3-p-tolyl-1-oxa-2,8-diazaspiro[4.5]dec-2-ene-8-carboxylic acid-(4-methylsulphanylphenyl)amide]
inhibition at 10 µM (vanilloid receptor (VR1)): 7.01%
activation at 10 µM (vanilloid receptor (VR1)): -0.32%
inhibition at 10 µM [1]: 87.2%
activation at 10 µM [1]: -0.47%

COc1cccc(C2=NOC3(CCN(C(=O)Nc4cccc(SC)c4)CC3)C2)c1 [Compound 59, 3-(3-methoxyphenyl)-1-oxa-2,8-diazaspiro[4.5]dec-2-ene-8-carboxylic acid-(3-methylsulphanylphenyl)amide]
inhibition at 10 µM (vanilloid receptor (VR1)): 2.09%
activation at 10 µM (vanilloid receptor (VR1)): 0.01%
inhibition at 10 µM [1]: 48.6%
activation at 10 µM [1]: 0.51%

CC(C)(C)c1ccc(/C=C/C(=O)N2CCC3(CC2)CC(c2ccccc2)=NO3)c(Br)c1 [Compound 368, (E)-3-(2-bromo-4-tert-butylphenyl)-1-(3-phenyl-1-oxa-2,8-diazaspiro[4.5]dec-2-en-8-yl)prop-2-en-1-one]
inhibition at 10 µM (vanilloid receptor (VR1)): 66%
activation at 10 µM (vanilloid receptor (VR1)): 0%
inhibition at 10 µM [1]: 83%
activation at 10 µM [1]: 0%

CC(C)(C)c1ccc(NC(=O)N2CCC3(CC(c4ccccc4)=NO3)C2)cc1 (centres unmarked) [Compound 371, N-(4-tert-butylphenyl)-3-phenyl-1-oxa-2,7-diazaspiro[4.4]non-2-ene-7-carboxamide]
inhibition at 10 µM (vanilloid receptor (VR1)): 12%
activation at 10 µM (vanilloid receptor (VR1)): 1%
inhibition at 10 µM [1]: 99%
activation at 10 µM [1]: 35%

CC(C)c1ccc(C=CC(=O)N2CCC3(CC2)CC(c2ccccc2)=NO3)cc1 [Compound 325, 3-(4-isopropylphenyl)-1-(3-phenyl-1-oxa-2,8-diazaspiro[4.5]dec-2-en-8-yl)propenone]
inhibition at 10 µM (vanilloid receptor (VR1)): 6%
activation at 10 µM (vanilloid receptor (VR1)): 0%
IC50 (vanilloid receptor (VR1); [2]): 875 nM
IC50 [1, 2]: 270 nM
inhibition at 10 µM [1]: 63%
activation at 10 µM [1]: -6%

COc1cccc(C2=NOC3(CCN(C(=O)Nc4ccc(C)cc4)CC3)C2)c1 [Compound 146, 3-(3-methoxyphenyl)-1-oxa-2,8-diazaspiro[4.5]dec-2-ene-8-carboxylic acid p-tolylamide]
inhibition at 10 µM (vanilloid receptor (VR1)): 9.95%
activation at 10 µM (vanilloid receptor (VR1)): 0.29%
inhibition at 10 µM [1]: 58%
activation at 10 µM [1]: -0.13%
